# Measured values reported in PMC11078746 (Nature, 2024).
# “And” between values parts separate entries of the source, which are not always exact repeats. Equal values may be shown once.
# Experiment: Mouse body weight, SW48 xenograft study with HRO761
# Type: in vivo
# Method: All animal studies were conducted in accordance with ethics and procedures covered by permit BS-2275 and BS-1975 issued by the Kantonales Veterinäramt Basel-Stadt and in strict adherence to guidelines of the Eidgenössisches Tierschutzgesetz and the Eidgenössische Tierschutzverordnung, Switzerland. All animal studies were approved by the internal ethics committee. All animals had access to food and water ad libitum and were identified with transponders. They were housed in a specific-pathogen-free facility in IVC racks under a 12 h–12 h light–dark cycle. To establish cell-line-derived xenograft models, 6–7-week-old female athymic nude (Crl:NU(NCr)-Foxn1^nu) or SCID-BEIGE (CB17.Cg-PrkdcscidLystbg-J/Crl) mice from Charles River were engrafted subcutaneously with 5 million tumour cells in HBSS (H6648, Sigma-Aldrich). For SNU-407, Lovo, IM95, RL95.2, Ishikawa and IGROV-1, the cells were concentrated in 50% Matrigel (354234, Corning). Patient-derived xenografts were induced and expanded by transplantation as previously described. […] For the efficacy experiment, mice were randomized into groups (n = 5–6) for a mean tumour size of 100–150 mm^3. […] Blood samples were collected on day 7 and 91. […] Tumour responses are reported with the measures of tumour volumes from the treatment start. […] Animals were randomized (n = 3) and tumour samples were collected at 0, 1, 4, 8 and 24 h on the first day and then collected 4 h after the last treatment on day 3, 8, 10, 14 (including a 24 h timepoint), 17 and 21. Tumours were excised, weighed, either frozen in liquid nitrogen and cryogenic dry pulverized with the CryoPrep system (model CP-02, Covaris) or processed to FFPE after fixation. […] On day 12, blood samples were collected for PK analysis. On the last day (3 h after the last treatment), tumours were excised, weighed, frozen in liquid nitrogen and cryogenic dry pulverized for PD analysis.
# [1] = HRO761 20mg/kg, day 0 post 1st dose
# [2] = HRO761 40mg/kg, day 0 post 1st dose
# [3] = HRO761 60mg/kg, day 0 post 1st dose
smiles,measurement,setting,value
CCc1c(N2CCN(C(=O)c3ncnc(C)c3O)CC2)c(=O)n2nc(C3=CCOCC3)nc2n1CC(=O)Nc1ccc(C(F)(F)F)cc1Cl [HRO761],"Delta BW change, individual mouse",[1],0%
same,Mean DBW,[1],0.00%
same,Mean DBW,"HRO761 20mg/kg, day 3 post 1st dose",-0.35%
same,"Delta BW change, individual mouse","HRO761 20mg/kg, day 3 post 1st dose, 20 mg/kg",1.24% and 0% (2×) and -0.78% and -2.23%
same,Mean DBW,"HRO761 20mg/kg, day 7 post 1st dose",0.52%
same,"Delta BW change, individual mouse","HRO761 20mg/kg, day 7 post 1st dose, 20 mg/kg",2.07% and 1.26% and 1.16% and -1.17% and -0.74%
same,Mean DBW,"HRO761 20mg/kg, day 10 post 1st dose",1.67%
same,"Delta BW change, individual mouse","HRO761 20mg/kg, day 10 post 1st dose, 20 mg/kg",3.32% and 6.28% and -1.54% and -1.56% and 1.86%
same,Mean DBW,"HRO761 20mg/kg, day 14 post 1st dose",1.33%
same,"Delta BW change, individual mouse","HRO761 20mg/kg, day 14 post 1st dose, 20 mg/kg",1.66% and 5.86% and -2.32% and -0.78% and 2.23%
same,Mean DBW,"HRO761 20mg/kg, day 17 post 1st dose",2.56%
same,Mean DBW,"HRO761 20mg/kg, day 21 post 1st dose",4.75%
same,Mean DBW,"HRO761 20mg/kg, day 24 post 1st dose",2.97%
same,Mean DBW,"HRO761 20mg/kg, day 28 post 1st dose",3.11%
same,Mean DBW,"HRO761 20mg/kg, day 31 post 1st dose",2.34%
same,Mean DBW,"HRO761 20mg/kg, day 35 post 1st dose",3.43%
same,Mean DBW,"HRO761 20mg/kg, day 38 post 1st dose",2.26%
same,Mean DBW,"HRO761 20mg/kg, day 42 post 1st dose",3.84%
same,Mean DBW,"HRO761 20mg/kg, day 45 post 1st dose",3.81%
same,"Delta BW change, individual mouse",[2],0%
same,Mean DBW,[2],0.00%
same,Mean DBW,"HRO761 40mg/kg, day 3 post 1st dose",-0.77%
same,"Delta BW change, individual mouse","HRO761 40mg/kg, day 3 post 1st dose, 40 mg/kg",-0.91% and 0.87% and -5.78% and -3.41% and 5.36%
same,Mean DBW,"HRO761 40mg/kg, day 7 post 1st dose",2.11%
same,"Delta BW change, individual mouse","HRO761 40mg/kg, day 7 post 1st dose, 40 mg/kg",3.18% and 5.63% and -3.25% and -1.14% and 6.13%
same,Mean DBW,"HRO761 40mg/kg, day 10 post 1st dose",1.41%
same,"Delta BW change, individual mouse","HRO761 40mg/kg, day 10 post 1st dose, 40 mg/kg",4.09% and 1.73% and -2.17% and 2.27% and 1.15%
same,Mean DBW,"HRO761 40mg/kg, day 14 post 1st dose",4.08%
same,"Delta BW change, individual mouse","HRO761 40mg/kg, day 14 post 1st dose, 40 mg/kg",5% and 7.36% and -0.36% and 4.17% and 4.21%
same,Mean DBW,"HRO761 40mg/kg, day 17 post 1st dose",3.43%
same,Mean DBW,"HRO761 40mg/kg, day 21 post 1st dose",5.66%
same,Mean DBW,"HRO761 40mg/kg, day 24 post 1st dose",6.90%
same,Mean DBW,"HRO761 40mg/kg, day 28 post 1st dose",6.44%
same,Mean DBW,"HRO761 40mg/kg, day 31 post 1st dose",5.60%
same,Mean DBW,"HRO761 40mg/kg, day 35 post 1st dose",6.99%
same,Mean DBW,"HRO761 40mg/kg, day 38 post 1st dose",6.65%
same,Mean DBW,"HRO761 40mg/kg, day 42 post 1st dose",6.89%
same,Mean DBW,"HRO761 40mg/kg, day 45 post 1st dose",7.16%
same,Mean DBW,"HRO761 40mg/kg, day 49 post 1st dose",8.78%
same,Mean DBW,"HRO761 40mg/kg, day 52 post 1st dose",8.33%
same,Mean DBW,"HRO761 40mg/kg, day 56 post 1st dose",7.63%
same,Mean DBW,"HRO761 40mg/kg, day 59 post 1st dose",8.29%
same,Mean DBW,"HRO761 40mg/kg, day 63 post 1st dose",9.98%
same,Mean DBW,"HRO761 40mg/kg, day 66 post 1st dose",10.38%
same,Mean DBW,"HRO761 40mg/kg, day 70 post 1st dose",8.92%
same,Mean DBW,"HRO761 40mg/kg, day 73 post 1st dose",8.55%
same,Mean DBW,"HRO761 40mg/kg, day 76 post 1st dose",11.97%
same,Mean DBW,"HRO761 40mg/kg, day 79 post 1st dose",7.46%
same,Mean DBW,"HRO761 40mg/kg, day 83 post 1st dose",7.38%
same,Mean DBW,"HRO761 40mg/kg, day 86 post 1st dose",9.81%
same,"Delta BW change, individual mouse",[3],0%
same,Mean DBW,[3],0.00%
same,Mean DBW,"HRO761 60mg/kg, day 3 post 1st dose",-1.52%
same,"Delta BW change, individual mouse","HRO761 60mg/kg, day 3 post 1st dose, 60 mg/kg",-2.98% and 1.63% and -3.35% and -4.6% and 1.71%
same,Mean DBW,"HRO761 60mg/kg, day 7 post 1st dose",-1.16%
same,"Delta BW change, individual mouse","HRO761 60mg/kg, day 7 post 1st dose, 60 mg/kg",-1.7% and -3.27% and 1.26% and -3.35% and 1.28%
same,Mean DBW,"HRO761 60mg/kg, day 10 post 1st dose",-1.23%
same,"Delta BW change, individual mouse","HRO761 60mg/kg, day 10 post 1st dose, 60 mg/kg",-0.43% and -6.94% and 7.11% and -5.02% and -0.85%
same,Mean DBW,"HRO761 60mg/kg, day 14 post 1st dose",0.014%
same,"Delta BW change, individual mouse","HRO761 60mg/kg, day 14 post 1st dose, 60 mg/kg",-0.43% and -2.86% and 6.69% and -4.18% and 0.85%
same,Mean DBW,"HRO761 60mg/kg, day 17 post 1st dose",-0.23%
same,Mean DBW,"HRO761 60mg/kg, day 21 post 1st dose",1.03%
same,Mean DBW,"HRO761 60mg/kg, day 24 post 1st dose",2.43%
